The values that follow come from PMC10924921, “Mi-2β promotes immune evasion in melanoma by activating EZH2 methylation” (Nature Communications, 2024).

Molecules are shown by their SMILES.

Holding throughout (assay): biochemical
Common to all, as to parameters: KINOMEscan active-site competition binding panel (468 kinase assays), per cent of control at 1000 nM
Details in all cases: KINOMEscan per cent of control (binding competition); read-out: Percent Control

For one experiment, the target named is MET (Homo sapiens, UniProt P08581). From the text:
(§1) Figure S7 / Percent Control

For experiment [1], the target named is T1, RSK4(Kin.Dom.2-C-terminal) (Homo sapiens, UniProt Q9UK32).
T1 construct: gene RPS6KA6; Kin.Dom.2-C-terminal
T1 sequence (Q9UK32 whole entry): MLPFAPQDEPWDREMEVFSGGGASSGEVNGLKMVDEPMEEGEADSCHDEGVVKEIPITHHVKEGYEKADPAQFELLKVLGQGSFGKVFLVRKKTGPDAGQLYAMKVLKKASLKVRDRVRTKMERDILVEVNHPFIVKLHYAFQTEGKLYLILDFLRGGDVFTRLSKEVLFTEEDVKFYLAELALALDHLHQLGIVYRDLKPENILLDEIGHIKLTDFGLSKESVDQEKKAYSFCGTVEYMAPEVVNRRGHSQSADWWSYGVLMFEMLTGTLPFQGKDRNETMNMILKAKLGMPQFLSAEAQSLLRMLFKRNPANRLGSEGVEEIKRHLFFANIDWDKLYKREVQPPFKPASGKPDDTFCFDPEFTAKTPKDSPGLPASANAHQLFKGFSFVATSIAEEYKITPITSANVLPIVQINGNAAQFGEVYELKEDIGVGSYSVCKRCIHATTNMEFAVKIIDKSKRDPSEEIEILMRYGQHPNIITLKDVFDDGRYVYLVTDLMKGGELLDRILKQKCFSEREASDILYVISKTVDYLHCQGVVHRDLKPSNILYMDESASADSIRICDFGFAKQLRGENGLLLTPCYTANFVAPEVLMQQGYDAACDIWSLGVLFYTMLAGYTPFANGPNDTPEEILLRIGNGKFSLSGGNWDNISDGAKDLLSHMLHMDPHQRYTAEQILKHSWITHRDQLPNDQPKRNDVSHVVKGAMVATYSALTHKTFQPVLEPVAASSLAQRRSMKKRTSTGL
From the text: as §1

Experiment [2] has as its target T2, ABL1(F317I)-nonphosphorylated (Homo sapiens, UniProt P00519, F317I).
T2 construct: nonphosphorylated
From the text: as §1

A further experiment concerns the target PIK3CA(H1047L) (Homo sapiens, UniProt P42336, H1047L).
From the text: as §1

The next experiment addresses PRKCQ (Homo sapiens, UniProt Q04759).
From the text: as §1

In another experiment the target is T3, SNARK (Homo sapiens, UniProt Q9H093).
T3 construct: gene NUAK2
T3 sequence (Q9H093 whole entry): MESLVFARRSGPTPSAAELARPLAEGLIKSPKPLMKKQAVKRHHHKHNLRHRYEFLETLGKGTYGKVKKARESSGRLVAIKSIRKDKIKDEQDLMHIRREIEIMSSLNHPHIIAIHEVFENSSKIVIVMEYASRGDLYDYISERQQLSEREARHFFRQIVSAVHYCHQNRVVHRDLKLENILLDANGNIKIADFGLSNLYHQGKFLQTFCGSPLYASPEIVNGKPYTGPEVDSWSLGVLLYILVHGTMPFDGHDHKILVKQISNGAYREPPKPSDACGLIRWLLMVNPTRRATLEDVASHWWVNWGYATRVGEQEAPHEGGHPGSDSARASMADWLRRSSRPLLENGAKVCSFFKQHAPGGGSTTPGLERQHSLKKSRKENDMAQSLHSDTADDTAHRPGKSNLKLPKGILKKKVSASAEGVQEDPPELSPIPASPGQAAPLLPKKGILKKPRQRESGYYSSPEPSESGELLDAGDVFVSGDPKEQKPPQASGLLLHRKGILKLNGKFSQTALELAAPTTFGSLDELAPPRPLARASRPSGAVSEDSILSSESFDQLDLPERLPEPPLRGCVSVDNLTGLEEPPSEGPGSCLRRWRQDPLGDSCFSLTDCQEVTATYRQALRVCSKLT
From the text: as §1

Another experiment addresses CSNK1G3 (Homo sapiens, UniProt Q9Y6M4).
From the text: as §1

A further experiment deals with T4, MEK6 (Homo sapiens, UniProt P52564).
T4 construct: gene MAP2K6
T4 sequence (P52564 whole entry): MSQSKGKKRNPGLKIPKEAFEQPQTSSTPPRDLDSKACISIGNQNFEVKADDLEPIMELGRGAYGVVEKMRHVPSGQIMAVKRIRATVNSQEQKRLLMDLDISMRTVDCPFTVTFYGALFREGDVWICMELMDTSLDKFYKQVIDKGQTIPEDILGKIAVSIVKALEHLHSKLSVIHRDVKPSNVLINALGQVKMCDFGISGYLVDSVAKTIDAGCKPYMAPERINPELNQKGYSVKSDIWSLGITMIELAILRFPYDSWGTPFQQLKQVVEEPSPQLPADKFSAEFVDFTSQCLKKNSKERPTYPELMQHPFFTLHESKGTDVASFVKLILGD
From the text: as §1

For another experiment, the target named is T5, MST4 (Homo sapiens, UniProt Q9P289).
T5 construct: gene STK26
T5 sequence (Q9P289 whole entry): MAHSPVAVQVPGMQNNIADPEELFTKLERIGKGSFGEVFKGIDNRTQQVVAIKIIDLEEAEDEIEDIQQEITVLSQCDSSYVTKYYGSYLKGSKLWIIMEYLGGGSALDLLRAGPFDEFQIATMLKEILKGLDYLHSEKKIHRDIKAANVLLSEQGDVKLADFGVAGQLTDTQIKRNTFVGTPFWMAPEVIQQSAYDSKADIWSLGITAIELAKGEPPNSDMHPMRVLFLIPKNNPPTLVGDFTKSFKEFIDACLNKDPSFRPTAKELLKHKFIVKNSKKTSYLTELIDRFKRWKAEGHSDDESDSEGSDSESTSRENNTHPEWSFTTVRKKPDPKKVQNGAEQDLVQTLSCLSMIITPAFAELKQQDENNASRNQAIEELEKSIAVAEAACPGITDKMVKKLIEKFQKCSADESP
From the text: as §1

A further experiment deals with LATS2 (Homo sapiens, UniProt Q9NRM7).
From the text: as §1

The target of a further experiment is KIT(V559D,V654A) (Homo sapiens, UniProt P10721, V559D/V654A).
From the text: as §1

For the next experiment, the target named is PIP5K1C (Homo sapiens, UniProt O60331).
Chain of PIP5K1C (O60331 whole entry): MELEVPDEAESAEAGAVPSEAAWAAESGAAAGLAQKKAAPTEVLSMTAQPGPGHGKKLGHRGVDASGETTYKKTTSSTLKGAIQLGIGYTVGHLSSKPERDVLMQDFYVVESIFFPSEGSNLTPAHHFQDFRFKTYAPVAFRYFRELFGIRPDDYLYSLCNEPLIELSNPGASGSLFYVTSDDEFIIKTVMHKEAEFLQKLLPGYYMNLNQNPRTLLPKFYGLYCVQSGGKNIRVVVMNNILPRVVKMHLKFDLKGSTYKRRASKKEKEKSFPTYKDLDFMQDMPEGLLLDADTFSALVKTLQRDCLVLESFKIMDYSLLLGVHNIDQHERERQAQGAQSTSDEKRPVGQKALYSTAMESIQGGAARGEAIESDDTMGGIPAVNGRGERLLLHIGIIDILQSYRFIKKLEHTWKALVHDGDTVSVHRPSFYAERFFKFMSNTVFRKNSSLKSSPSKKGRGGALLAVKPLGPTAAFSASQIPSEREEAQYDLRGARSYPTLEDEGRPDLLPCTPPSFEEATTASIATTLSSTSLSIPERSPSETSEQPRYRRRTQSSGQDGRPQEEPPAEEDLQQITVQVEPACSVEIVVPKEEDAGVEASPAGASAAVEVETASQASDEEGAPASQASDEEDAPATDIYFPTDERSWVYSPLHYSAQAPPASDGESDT
From the text: as §1

The next experiment addresses T6, ASK1 (Homo sapiens, UniProt Q99683).
T6 construct: gene MAP3K5
From the text: as §1

A further experiment concerns the target T7, PRP4 (Homo sapiens, UniProt Q13523).
T7 construct: gene PRPF4B
From the text: as §1

A further experiment concerns the target EGFR(G719C) (Homo sapiens, UniProt P00533, G719C).
From the text: as §1

For a further experiment, the target named is T8, ADCK4 (Homo sapiens, UniProt Q96D53).
T8 construct: gene COQ8B
T8 sequence (Q96D53 whole entry): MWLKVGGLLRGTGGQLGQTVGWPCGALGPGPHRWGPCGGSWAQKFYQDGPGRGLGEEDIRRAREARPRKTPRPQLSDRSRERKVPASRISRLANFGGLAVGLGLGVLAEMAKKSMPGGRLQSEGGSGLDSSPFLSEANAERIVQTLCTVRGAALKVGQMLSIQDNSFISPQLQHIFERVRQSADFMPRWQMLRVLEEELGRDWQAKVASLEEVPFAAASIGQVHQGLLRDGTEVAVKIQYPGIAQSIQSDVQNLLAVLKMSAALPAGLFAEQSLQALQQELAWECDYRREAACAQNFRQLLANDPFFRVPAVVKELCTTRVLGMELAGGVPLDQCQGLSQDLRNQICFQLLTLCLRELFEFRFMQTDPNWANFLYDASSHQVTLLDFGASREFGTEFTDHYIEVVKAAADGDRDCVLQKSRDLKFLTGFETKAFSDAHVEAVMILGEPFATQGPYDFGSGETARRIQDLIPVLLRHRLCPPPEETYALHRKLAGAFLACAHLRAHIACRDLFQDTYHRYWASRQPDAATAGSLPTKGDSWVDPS
From the text: as §1

The target of experiment [3] is T9, ABL1(H396P)-phosphorylated (Homo sapiens, UniProt P00519, H396P).
T9 construct: phosphorylated
From the text: as §1

The next experiment addresses DDR1 (Homo sapiens, UniProt Q08345).
From the text: as §1

The target in another experiment is CAMK4 (Homo sapiens, UniProt Q16566).
Chain of CAMK4 (Q16566 whole entry): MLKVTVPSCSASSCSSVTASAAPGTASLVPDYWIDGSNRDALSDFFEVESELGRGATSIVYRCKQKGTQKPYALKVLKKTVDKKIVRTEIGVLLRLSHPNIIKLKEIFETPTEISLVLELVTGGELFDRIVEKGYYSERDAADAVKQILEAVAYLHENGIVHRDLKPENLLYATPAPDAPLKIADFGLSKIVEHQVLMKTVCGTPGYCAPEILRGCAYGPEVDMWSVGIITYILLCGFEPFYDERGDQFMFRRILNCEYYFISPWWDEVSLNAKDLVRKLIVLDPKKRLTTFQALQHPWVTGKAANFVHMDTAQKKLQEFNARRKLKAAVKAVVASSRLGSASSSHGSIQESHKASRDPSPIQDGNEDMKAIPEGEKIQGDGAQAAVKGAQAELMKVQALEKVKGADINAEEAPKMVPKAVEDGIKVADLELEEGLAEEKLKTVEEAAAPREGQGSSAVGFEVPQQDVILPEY
From the text: as §1

For the next experiment, the target named is KIT(V559D,T670I) (Homo sapiens, UniProt P10721, T670I/V559D).
From the text: as §1

The target of another experiment is CDKL2 (Homo sapiens, UniProt Q92772).
From the text: as §1

A further experiment deals with ERBB3 (Homo sapiens, UniProt P21860).
From the text: as §1

For another experiment, the target named is SRPK3 (Homo sapiens, UniProt Q9UPE1).
From the text: as §1

The target in a further experiment is PLK1 (Homo sapiens, UniProt P53350).
From the text: as §1

Chain of PIK3CA(H1047L) (P42336 whole entry H1047L): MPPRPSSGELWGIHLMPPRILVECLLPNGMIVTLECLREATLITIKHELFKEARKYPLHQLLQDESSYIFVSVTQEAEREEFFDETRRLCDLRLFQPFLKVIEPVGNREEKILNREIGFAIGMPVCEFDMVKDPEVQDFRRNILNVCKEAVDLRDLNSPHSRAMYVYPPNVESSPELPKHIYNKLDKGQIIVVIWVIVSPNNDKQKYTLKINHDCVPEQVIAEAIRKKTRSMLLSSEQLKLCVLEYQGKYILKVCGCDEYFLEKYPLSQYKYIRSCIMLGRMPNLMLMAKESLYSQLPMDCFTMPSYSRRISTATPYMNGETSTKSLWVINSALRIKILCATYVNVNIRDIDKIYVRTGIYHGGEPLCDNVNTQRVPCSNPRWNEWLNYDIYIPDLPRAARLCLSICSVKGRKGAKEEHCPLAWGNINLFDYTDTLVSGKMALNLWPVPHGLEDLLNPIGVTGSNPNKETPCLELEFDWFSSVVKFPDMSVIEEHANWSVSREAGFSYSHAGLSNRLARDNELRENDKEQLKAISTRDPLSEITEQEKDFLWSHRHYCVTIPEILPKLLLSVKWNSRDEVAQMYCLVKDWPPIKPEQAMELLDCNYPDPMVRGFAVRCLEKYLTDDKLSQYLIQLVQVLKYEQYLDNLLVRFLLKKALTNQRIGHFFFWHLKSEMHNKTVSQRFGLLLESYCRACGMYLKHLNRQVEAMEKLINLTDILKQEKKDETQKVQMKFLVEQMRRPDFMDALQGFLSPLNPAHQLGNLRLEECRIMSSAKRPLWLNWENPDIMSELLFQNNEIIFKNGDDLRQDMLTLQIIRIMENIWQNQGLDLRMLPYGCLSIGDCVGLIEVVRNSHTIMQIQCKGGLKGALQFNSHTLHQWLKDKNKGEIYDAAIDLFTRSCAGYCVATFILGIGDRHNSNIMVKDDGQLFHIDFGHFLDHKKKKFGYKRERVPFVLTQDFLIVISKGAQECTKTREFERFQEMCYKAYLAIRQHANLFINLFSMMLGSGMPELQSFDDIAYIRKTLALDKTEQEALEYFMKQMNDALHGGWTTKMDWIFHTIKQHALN

Consider `Cn1c(=O)[nH]c2ccc(-c3cccc(C(=O)NC4CCn5ccnc5C4)c3)cc21` (stereo not drawn) [Z36-MP5], for which the remaining binding at 1 µM at MET stood at 96%; in experiment [1], 82%; in experiment [2], 85%; on PIK3CA(H1047L), 90%; at PRKCQ, 86%; on SNARK, 64%. For the same compound, the remaining binding at 1 µM turned out to be 74% on CSNK1G3; 99% at MEK6; 82% on MST4; 95% at LATS2; 76% at KIT(V559D,V654A); 66% on PIP5K1C. The remaining binding at 1 µM on ASK1 was determined as 75%; on PRP4 it was 84%; at EGFR(G719C), 79%; at ADCK4, 64%; in experiment [3] it was 82%; on DDR1, 88%. Further, the remaining binding at 1 µM on CAMK4 is 98%; at KIT(V559D,T670I), 86%; at CDKL2, 68%; at ERBB3 it was 100%; on SRPK3, 51%; on PLK1 it was 70%.
